Key:
[1] = Oral bioavailability and metabolism study of N,N′-dihydroxybenzamidine in pigs (plasma levels by HPLC); format: in vivo
Experimental: Metabolism of N,N′-dihydroxybenzamidine to benzamidine in vivo proceeds in the following way:
In order to be able to ascertain the exact dosage of the substances, the animals were weighed once a week. The daily weight gain was calculated from the data. The substances to be administered orally were mixed into the moistened, ground feed concentrate. The substances given intravenously were dissolved in 0.9% NaCl solution in order to avoid hemolysis.
Directly before injection into the indwelling vein catheter, the solution was filtered in order to avoid induction of thrombus formation by any undissolved portions. The injection was followed by flushing with at least 10 ml of 0.9% NaCl solution again. The substance was administered in the morning on each occasion. A washout period took place the next day on each occasion in order to ensure complete excretion of the medicinal substance.
The orally administered doses of N,N′-dihydroxy-benzamidine were in each case 10 mg/kg of body weight (BW). The concentration of the substances administered intravenously as bolus was 2 mg/kg BW. Benzamidine and N,N′-dihydroxybenzamidine were likewise administered intravenously. The samples were taken at previously fixed times. The experimental period for one condition lasted one day. The blood samples were obtained over a period of 24 hours after administration of the substance. After oral administration, the samples were taken after 0, 30, 60, 90, 120, 150, 180, 240, 360, 480, 720 and 1440 minutes. After intravenous administration, an additional sample was taken after 5 and 15 minutes. The whole blood obtained was transferred into heparin tubes and centrifuged (4° C., 10 min, 1500 g). After centrifugation, about 4 ml of plasma were removed as supernatant, pipetted into Eppendorf vessels and frozen at −80° C. The plasma samples were slowly thawed and then centrifuged at 7000 rpm for 3 minutes, worked up by solid-phase extraction and passed on for HPLC.

[2] = literature value (Clement, Lopian 2003); cited from earlier work

Reduction of prodrug to the active form (amidine) in the blood ([1]; after oral administration) | Metabolite benzamide oxime in plasma after injection ([1]; i.v. 2 mg/kg BW) | Reduction of prodrug to the amidine after injection ([1]; i.v. 2 mg/kg BW) | Absorption after oral administration ([1]; oral 10 mg/kg BW) | Compound | Oral bioavailability [2] [%]
rapidly reduced to the active form | benzamide oxime also being detectable | rapidly reduced to the amidine | almost completely absorbed | O/N=C(/NO)c1ccccc1 [N,N′-dihydroxybenzamidine] | –
– | – | – | – | N=C(N)c1ccc(CNC(=O)[C@@H]2CCN2C(=O)[C@H](NCC(=O)O)C2CCCCC2)cc1 [melagatran] | 7
– | – | – | – | CCOC(=O)CN[C@@H](C(=O)N1CC[C@H]1C(=O)NCc1ccc(/C(N)=N\O)cc1)C1CCCCC1 [ximelagatran] | 14

— patent US20090270440A1, “BIOAVAILABILITY OF ACTIVE SUBSTANCES HAVING AN AMIDINE FUNCTION IN MEDICAMENTS” (Drite Patentportfolio Beteilligungsgesellschaft mbH & Co. KG, priority 2006, published 2009)
